# Results from patent US8513433B2, “Small molecule inhibitors of PARP activity” (Angion Biomedica Corp., priority 2009, dated 2013).
# Tests used:
# human PARP-1 = target: T1, human PARP-1 (Homo sapiens, UniProt P09874); test: Poly (ADP-Ribose) Polymerase-1 (PARP-1) in vitro enzyme assay (Universal Colorimetric PARP Assay Kit); assay type: biochemical; settings: letter codes; read-out: extent of inhibition of PARP activity (IC50, micromolar)
# T1 construct: purchased Trevigen Inc., Gaithersburg, Md
# T1 sequence (P09874 whole entry): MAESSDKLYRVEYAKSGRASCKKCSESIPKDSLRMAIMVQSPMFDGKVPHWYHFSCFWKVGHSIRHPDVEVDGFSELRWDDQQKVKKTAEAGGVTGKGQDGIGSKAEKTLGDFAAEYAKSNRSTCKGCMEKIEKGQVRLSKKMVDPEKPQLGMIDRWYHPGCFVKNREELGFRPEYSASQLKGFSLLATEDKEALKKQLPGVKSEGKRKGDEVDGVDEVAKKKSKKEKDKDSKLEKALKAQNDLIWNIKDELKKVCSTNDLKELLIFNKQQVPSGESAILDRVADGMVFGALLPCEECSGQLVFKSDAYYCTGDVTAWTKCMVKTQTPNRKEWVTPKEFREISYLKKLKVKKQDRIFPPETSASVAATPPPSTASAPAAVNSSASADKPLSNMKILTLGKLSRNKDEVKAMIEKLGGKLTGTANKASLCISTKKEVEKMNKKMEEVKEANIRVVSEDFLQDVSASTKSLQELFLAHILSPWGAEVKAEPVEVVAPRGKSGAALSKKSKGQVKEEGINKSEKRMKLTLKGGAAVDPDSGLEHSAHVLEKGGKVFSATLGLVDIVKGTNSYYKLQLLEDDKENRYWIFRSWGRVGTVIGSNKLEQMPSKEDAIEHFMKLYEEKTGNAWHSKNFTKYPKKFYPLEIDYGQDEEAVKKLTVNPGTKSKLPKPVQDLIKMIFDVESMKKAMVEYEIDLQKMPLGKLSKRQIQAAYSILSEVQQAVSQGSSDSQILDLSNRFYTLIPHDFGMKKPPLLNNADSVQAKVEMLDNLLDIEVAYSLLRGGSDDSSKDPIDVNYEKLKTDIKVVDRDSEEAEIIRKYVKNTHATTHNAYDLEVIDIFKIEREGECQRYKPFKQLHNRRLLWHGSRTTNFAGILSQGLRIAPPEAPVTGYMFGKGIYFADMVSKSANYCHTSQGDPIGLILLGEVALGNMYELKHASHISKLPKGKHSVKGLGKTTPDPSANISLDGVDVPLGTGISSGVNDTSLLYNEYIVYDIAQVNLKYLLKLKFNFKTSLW
# Source text: Poly (ADP-Ribose) Polymerase-1 (PARP-1) In Vitro Enzyme Assay: Compounds can be screened for inhibitory activity against human PARP-1 in vitro using the Universal Colorimetric PARP Assay Kit (Trevigen Inc., Gaithersburg, Md.) as directed by the supplier. Compounds can be assayed in duplicate in 0.5% DMSO final concentration, negative control is no enzyme, while positive control is DMSO vehicle alone. IC50 determinations can be made using Microsoft Excel. For all cell assays, compounds can be added to cells in 5% DMSO/PBS for a final concentration of 0.5% DMSO.
# rats = settings: hemorrhagic shock and resuscitation; cited from earlier work
# rat = settings: 45 minutes ischemia, up to six hours reperfusion; drug one minute before reperfusion; cited from earlier work
# Mice = settings: eleven minutes aortic ischemia, 48 hours reperfusion, cited from earlier work
# mouse = mouse arthritis; inflammatory cell infiltration, hyperplasia of the synovium, tissue necrosis; cited from earlier work
# [1] = test system: vascular smooth muscle cells in tumors; settings: cited from earlier work
# PARP-1 = settings: agent alone; cited from earlier work
IC50 (human PARP-1),Structure (SMILES),also measured
< 0.5 µM,NC(=O)c1cccc2[nH]c(C3NCc4ccccc43)nc12 (stereo not shown) [2-(Isoindolin-1-yl)-1H-benzo[d]imidazole-4-carboxamide],–
> 2 µM,"CC1(c2nc3c(C(N)=O)cccc3[nH]2)Cc2ccccc2CN1C(=O)OCc1ccccc1 (stereo not shown) [Benzyl 3-(4-carbamoyl-1H-benzo[d]imidazol-2-yl)-3-methyl-3,4-dihydroisoquinoline-2(1H)-carboxylate]",–
< 0.5 µM,"NC(=O)c1cccc2[nH]c(C3CCc4ccccc4N3)nc12 (stereo not shown) [2-(1,2,3,4-Tetrahydroquinolin-2-yl)-1H-benzo[d]imidazole-4-carboxamide]",–
–,Nc1cccc2cnccc12 [5-aminoisoquinoline],leukocyte-endothelial interaction (rats): decreased leukocyte-endothelial interaction; liver function (rats): improved liver function; liver injury (rats): decreased liver injury
–,NC(=O)c1cccc(N)c1 [3-aminobenzamide],"kidney function (plasma urea, plasma creatinine, glomerular filtration rate) (rat): improved kidney function"
< 0.5 µM,"NC(=O)c1cccc2[nH]c(C3Cc4ccccc4CN3)nc12 (stereo not shown) [2-(1,2,3,4-Tetrahydroisoquinolin-3-yl)-1H-benzo[d]imidazole-4-carboxamide]",–
–,"Oc1cccc2c(O)nccc12 [1,5-dihroxyisoquinoline]","kidney function (plasma urea, plasma creatinine, glomerular filtration rate) (rat): improved kidney function"
> 2 µM,"CC(C)(C)OC(=O)Nc1ccc2c(c1)CNC(c1nc3c(C(N)=O)cccc3[nH]1)C2 (stereo not shown) [tert-Butyl (3-(4-carbamoyl-1H-benzo[d]imidazol-2-yl)-1,2,3,4-tetrahydroisoquinolin-7-yl)carbamates]",–
0.5 to 2 µM,"NC(=O)c1cccc2[nH]c(C3Cc4ccccc4CN3C(=O)OCc3ccccc3)nc12 (stereo not shown) [Benzyl 3-(4-carbamoyl-1H-benzo[d]imidazol-2-yl)-3,4-dihydroisoquinoline-2-(1H)-carboxylate]",–
> 2 µM,"CC(C)(C)OC(=O)N1Cc2cc(N)ccc2CC1c1nc2c(C(N)=O)cccc2[nH]1 (stereo not shown) [tert-Butyl 7-amino-3-(4-carbamoyl-1H-benzo[d]imidazol-2-yl)-3,4-dihydroisoquinoline-2(1H)-carboxylate]",–
–,CN(C)CC(=O)Nc1ccc2[nH]c(=O)c3ccccc3c2c1 [PJ34],fibrinolysis stimulated by the ischemia-reperfusion (Mice): no apparent affect; steady state levels of a marker for neutrophil infiltration (Mice): decrease steady state levels; renal mitochondrial activity (Mice; treated 1 hour before and immediately after ischemia): preserve renal mitochondrial activity
> 2 µM,"NC(=O)c1cccc2[nH]c(C3c4ccccc4CCN3C(=O)OCc3ccccc3)nc12 (stereo not shown) [Benzyl 1-(4-carbamoyl-1H-benzo[d]imidazol-2-yl)-3,4-dihydroisoquinoline-2(1H)-carboxylate]",–
–,"Nc1ccc2oc(=O)ccc2c1I [5-iodo-6-amino-1,2-benzopyrone]",severity of the disease as assessed by histological parameters (mouse): reduced the severity of the disease
–,NC(=O)c1cccnc1 [nicotinamide],contraction of vascular smooth muscle cells in tumors [1]: inhibit contraction
< 0.5 µM,"CC1(c2nc3c(C(N)=O)cccc3[nH]2)Cc2ccccc2CN1 (stereo not shown) [2-(3-Methyl-1,2,3,4-tetrahydroisoquinolin-3-yl)-1H-benzo[d]imidazole-4-carboxamide]",–
–,CC[C@@]1(O)C(=O)OCc2c1cc1n(c2=O)Cc2cc3ccccc3nc2-1 [camptothecin],activation of PARP-1 (PARP-1): four-fold activation
< 0.5 µM,"NC(=O)c1cccc2[nH]c(C3Cc4ccc(N)cc4CN3)nc12 (stereo not shown) [2-(7-Amino-1,2,3,4-tetrahydroisoquinolin-3-yl)-1H-benzo[d]imidazole-4-carboxamide]",–
> 2 µM,"CC(C)(C)OC(=O)N1c2ccccc2CCC1c1nc2c(C(N)=O)cccc2[nH]1 (stereo not shown) [tert-Butyl 2-(4-carbamoyl-1H-benzo[d]imidazol-2-yl)-3,4-dihydroquinoline-1(2H)-carboxylate]",–
> 2 µM,NC(=O)c1cccc2[nH]c(C3c4ccccc4CN3C(=O)OCc3ccccc3)nc12 (stereo not shown) [Benzyl 1-(4-carbamoyl-1H-benzo[d]imidazol-2-yl)isoindoline-2-carboxylate],–
> 2 µM,NC(=O)c1cccc2[nH]c(C3Cc4ccccc4N3C(=O)OCc3ccccc3)nc12 (stereo not shown) [Benzyl 2-(4-carbamoyl-1H-benzo[d]imidazol-2-yl)indoline-1-carboxylate],–
< 0.5 µM,NC(=O)c1cccc2[nH]c(C3Cc4ccccc4N3)nc12 (stereo not shown) [2-(Indolin-2yl)-1H-benzo[d]imidazole-4-carboxamide],–
< 0.5 µM,"NC(=O)c1cccc2[nH]c(C3NCCc4ccccc43)nc12 (stereo not shown) [2-(1,2,3,4-Tetrahydroisoquinolin-1-yl)-1H-benzo[d]imidazole-4-carboxamide]",–
–,COc1cc([C@@H]2c3cc4c(cc3[C@@H](O[C@@H]3O[C@@H]5CO[C@@H](C)O[C@H]5[C@H](O)[C@H]3O)[C@H]3COC(=O)[C@H]23)OCO4)cc(OC)c1O [etoposide],activation of PARP-1 (PARP-1): failed to induce PARP-1

Structure (SMILES),IC50 (human PARP-1),also measured
"CC(C)(C)OC(=O)Nc1ccc2c(c1)CN(C(=O)OC(C)(C)C)C(c1nc3c(C(N)=O)cccc3[nH]1)C2 (stereo not shown) [tert-Butyl 7-((tert-butoxycarbonyl)amino)-3-(4-carbamoyl-1H-benzo[d]imidazol-2-yl)-3,4-dihydroisoquinoline-2(1H)-carboxylate]",> 2 µM,–
